18 compounds from PubChem BioAssay (NCI) can be followed below.

Molecules are shown by their SMILES.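 1) Cells in 96-well plates. 2) Compound, 48 h, 5 concentrations. 3) Linear interpolation between surrounding doses. 4) Unreached endpoint = highest concentration. Here, GI50 denotes the concentration required for 50% inhibition of growth. TGI marks complete inhibition of growth.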

Some test systems named below: NCI-H460 lung; NCI-H23 lung; LOX IMVI melanoma; HT29 colon; SF-268 CNS; SF-295 CNS; SNB-75 CNS; OVCAR-8 ovarian; EKVX NSCLC; M14 melanoma; UO-31 renal; SR leukemia.
Common to all, as to assay: NCI-60 cell line screen, 48 h

For `CCC1(N=[N+]=[N-])C(=O)Nc2cc(C)ccc2C1=O` (centres undefined), the TGI with NCI-H460 lung, in the assay on NCI-H23 lung, in the assay with LOX IMVI melanoma, in the assay with HT29 colon, in the assay with SF-268 CNS and in the assay on SF-295 CNS was above 100 µM in each case. The TGI in the assay on SNB-75 CNS, with OVCAR-8 ovarian, in the assay on EKVX NSCLC, with M14 melanoma and in the assay on UO-31 renal was above 100 µM each time.
On to `C=C[C@H]1CN2CCc3c([nH]c4c([C@H]5CCCN5C)c(O)ccc34)[C@@H]2C[C@@H]1C[C@H]1c2[nH]c3ccccc3c2CCN1C`, for which the GI50 with NCI-H460 lung is 1.74 µM. Also, the TGI in the assay on NCI-H460 lung is 3.53 µM; in the assay on NCI-H23 lung, 3.56 µM; with LOX IMVI melanoma, 2.4 µM; in the assay with HT29 colon, 2.75 µM; in the assay on SF-268 CNS, 2.97 µM; in the assay with SF-295 CNS, 3.25 µM. The TGI with SNB-75 CNS was found to be 2.4 µM; in the assay with OVCAR-8 ovarian it was 2.91 µM; in the assay on EKVX NSCLC it was 3.34 µM; with M14 melanoma, 2.89 µM; with UO-31 renal it was 3.24 µM.
Consider `CN(C)CCNc1ccc2c(=O)n(CCN(C)C)c(=O)n3c4ccc(N)cc4c(=O)c1c23`, for which the TGI in the assay on NCI-H460 lung is 0.56 µM; in the assay with NCI-H23 lung, 0.215 µM; in the assay with LOX IMVI melanoma, 0.283 µM; in the assay on HT29 colon, 0.46 µM; with SF-268 CNS, 1.25 µM; in the assay with SF-295 CNS, 1.07 µM. Besides, the TGI in the assay on SNB-75 CNS came out at 0.442 µM; with OVCAR-8 ovarian it was 0.722 µM; in the assay on EKVX NSCLC, 0.593 µM; in the assay with M14 melanoma, 0.449 µM; in the assay on UO-31 renal, 0.346 µM.
For `O=C(CCCn1ccnc1[N+](=O)[O-])NCCn1ccnc1`, the TGI in the assay on NCI-H460 lung, in the assay on SR leukemia, in the assay with NCI-H23 lung, in the assay with HT29 colon, with SF-268 CNS and in the assay on SF-295 CNS was above 100 µM throughout. Also, the TGI with SNB-75 CNS, in the assay on OVCAR-8 ovarian, in the assay on M14 melanoma and with UO-31 renal was above 100 µM in each case.
With `[N-]=[N+]=NC1C(Br)C(=O)NC(=O)N1[C@H]1C[C@H](O)[C@@H](CO)O1` (some centres undefined), the TGI in the assay with NCI-H460 lung, with NCI-H23 lung, in the assay on LOX IMVI melanoma, with HT29 colon, in the assay on SF-268 CNS and with SF-295 CNS was above 100 µM each time. Besides, the TGI in the assay on SNB-75 CNS, in the assay on OVCAR-8 ovarian, in the assay on EKVX NSCLC, in the assay with M14 melanoma and in the assay on UO-31 renal was above 100 µM in each case.
For the compound `COc1ccc(OC)c2nc3c(C(=O)NCCN(C)C)cccc3nc12`, the TGI is 21.5 µM with NCI-H460 lung; 25.5 µM with NCI-H23 lung; 4.91 µM in the assay on LOX IMVI melanoma; above 44.3 µM in the assay on HT29 colon; 27.6 µM in the assay on SF-268 CNS; 25.6 µM in the assay on SF-295 CNS. The TGI in the assay on SNB-75 CNS is 32.4 µM; in the assay on OVCAR-8 ovarian, 17.7 µM; in the assay with EKVX NSCLC, 22.9 µM; with M14 melanoma, 15.8 µM; in the assay on UO-31 renal, above 84.7 µM.
As for `CC(=O)OCC1OC(n2c(=O)n(-c3ccccc3)c(=O)c3ccccc32)C(OC(C)=O)C(OC(C)=O)C1OC(C)=O` (centres undefined), the TGI in the assay with NCI-H460 lung, in the assay with NCI-H23 lung, in the assay on LOX IMVI melanoma, in the assay on HT29 colon, in the assay with SF-268 CNS and with SF-295 CNS was above 100 µM throughout. The TGI in the assay with SNB-75 CNS, in the assay with OVCAR-8 ovarian, in the assay on EKVX NSCLC, in the assay with M14 melanoma and in the assay with UO-31 renal was above 100 µM each time.
Consider `O=c1cc(-c2cccc(OC(F)(F)F)c2)[nH]c2cc3c(cc12)OCO3`, for which the TGI was 1.1 µM in the assay on NCI-H460 lung; above 100 µM in the assay on NCI-H23 lung; 26.6 µM with HT29 colon; above 100 µM with SF-268 CNS; 17.3 µM with SNB-75 CNS; above 52.2 µM in the assay with OVCAR-8 ovarian. For the same compound, the TGI with EKVX NSCLC is above 100 µM; in the assay with M14 melanoma it was above 35.7 µM.
`CC1OC(O[C@H]2CC[C@]3(C)[C@H]4CC=C5[C@@H]6[C@@H](C)[C@H](C)CC[C@]6(C(=O)O)CC[C@@]5(C(=O)O)[C@]4(C)CC[C@H]3C2(C)C)C(O)C(O)C1O` (some centres undefined): the TGI with NCI-H460 lung, with SR leukemia, in the assay on NCI-H23 lung, in the assay on LOX IMVI melanoma, with SF-268 CNS and in the assay with SF-295 CNS was above 75 µM in each case. The TGI with SNB-75 CNS, with OVCAR-8 ovarian, with M14 melanoma and in the assay with UO-31 renal was above 75 µM in each case.
Turning to `O=C1CCC2SC1CCC2=O`, the TGI in the assay with NCI-H460 lung, with NCI-H23 lung, with LOX IMVI melanoma, with HT29 colon, in the assay on SF-268 CNS and in the assay with SF-295 CNS was above 100 µM throughout. For the same compound, the TGI in the assay on SNB-75 CNS, in the assay on OVCAR-8 ovarian, in the assay on EKVX NSCLC, in the assay on M14 melanoma and with UO-31 renal was above 100 µM in each case.
For `O=C1N=C(c2ccccc2)O/C1=C\c1ccccc1`, the TGI in the assay with NCI-H460 lung, in the assay with SR leukemia, in the assay with NCI-H23 lung, in the assay with LOX IMVI melanoma, in the assay on HT29 colon and in the assay with SF-268 CNS was above 100 µM each time. The TGI in the assay with SF-295 CNS, in the assay with SNB-75 CNS, with OVCAR-8 ovarian, in the assay on M14 melanoma and with UO-31 renal was above 100 µM in each case.
On to `O=c1cc2ccccc2nn1-c1ccccc1Cl`, for which the TGI with NCI-H460 lung, in the assay with NCI-H23 lung, in the assay on LOX IMVI melanoma, in the assay with HT29 colon, in the assay on SF-268 CNS and in the assay on SF-295 CNS was above 100 µM in each case. Moreover, the TGI in the assay with SNB-75 CNS is above 100 µM; with OVCAR-8 ovarian, above 100 µM; in the assay with EKVX NSCLC it was above 100 µM; with M14 melanoma, above 100 µM; in the assay with UO-31 renal, 96.6 µM.
As to `Cc1ccc(S(=O)(=O)N2CCCCN(S(=O)(=O)c3ccc(C)cc3)Cc3ccccc3OCCOCCOc3c4cccc3Cc3cccc5c3OCCOCCOc3ccccc3CN(S(=O)(=O)c3ccc(C)cc3)CCCN(S(=O)(=O)c3ccc(C)cc3)Cc3ccccc3OCCOCCOc3c(cccc3C4)Cc3cccc(c3OCCOCCOc3ccccc3C2)C5)cc1`, the TGI with NCI-H460 lung, in the assay on NCI-H23 lung, in the assay on LOX IMVI melanoma, with HT29 colon, in the assay with SF-268 CNS and in the assay with SF-295 CNS was above 100 µM in each case. For the same compound, the TGI in the assay with SNB-75 CNS, in the assay on OVCAR-8 ovarian, in the assay on EKVX NSCLC, with M14 melanoma and in the assay on UO-31 renal was above 100 µM in each case.
As to `COC(=O)[C@H](Cc1ccccc1)NC(=O)N1CCN(C(=O)N[C@@H](Cc2ccccc2)C(=O)OC)CCN(C(=O)N[C@@H](Cc2ccccc2)C(=O)OC)CC1`, the TGI in the assay with NCI-H460 lung, in the assay on NCI-H23 lung, with LOX IMVI melanoma, in the assay with HT29 colon, in the assay with SF-268 CNS and in the assay with SF-295 CNS was above 100 µM in each case. In addition, the TGI in the assay with SNB-75 CNS, with OVCAR-8 ovarian, with EKVX NSCLC, in the assay on M14 melanoma and with UO-31 renal was above 100 µM throughout.
As to `CNC(=O)CCNC(=O)CCC(=O)OC`, the TGI in the assay with NCI-H460 lung, with NCI-H23 lung, in the assay with HT29 colon, in the assay on SF-268 CNS, in the assay with SF-295 CNS and in the assay on OVCAR-8 ovarian was above 100 µM throughout. The TGI in the assay on M14 melanoma and in the assay on UO-31 renal was above 100 µM in each case.
For `Cc1cc(Cl)ccc1N=NC(=O)NNc1ccc(Cl)cc1C`, the TGI in the assay on NCI-H460 lung came to 27.4 µM; in the assay with SR leukemia it was 80.7 µM; in the assay with NCI-H23 lung it was 29.8 µM; in the assay on LOX IMVI melanoma, 30.6 µM; in the assay with HT29 colon, 36.4 µM; in the assay with SF-268 CNS, 37.5 µM. Also, the TGI in the assay with SNB-75 CNS was found to be 33.3 µM; with OVCAR-8 ovarian, 27.2 µM; in the assay on M14 melanoma, 35.3 µM; in the assay with UO-31 renal, 29.6 µM.
Turning to `COC[n+]1cc2cc(OC)c(OC)cc2c2ccc3cc(OC)c(OC)cc3c21`, the TGI with NCI-H460 lung, with NCI-H23 lung, in the assay with LOX IMVI melanoma, with HT29 colon, with SF-268 CNS and in the assay on SF-295 CNS was above 100 µM in each case. The TGI in the assay with SNB-75 CNS, in the assay on OVCAR-8 ovarian, in the assay on EKVX NSCLC, with M14 melanoma and in the assay on UO-31 renal was above 100 µM in each case.
`CC1N(C)C(=O)OC12CCN(CCCC(=O)c1ccc(F)cc1)CC2` (centres undefined): the TGI in the assay on NCI-H460 lung, with NCI-H23 lung, with LOX IMVI melanoma, in the assay with HT29 colon, in the assay on SF-268 CNS and with SF-295 CNS was above 100 µM in each case. Besides, the TGI in the assay with SNB-75 CNS, in the assay with OVCAR-8 ovarian, in the assay with M14 melanoma and in the assay with UO-31 renal was above 100 µM each time.
